Test results taken from patent publication US5863776A, “Method of preparing apoenzyme” (Research Development Foundation, priority 1996, dated 1999).

T1: MAO B (Homo sapiens, UniProt P27338)
T1 construct: expressed in transfected cells; host or cells: COS-7 (African green monkey), riboflavin-containing (Rib+) or riboflavin-depleted (Rib-), transient electroporation
T1 sequence (P27338 1-520): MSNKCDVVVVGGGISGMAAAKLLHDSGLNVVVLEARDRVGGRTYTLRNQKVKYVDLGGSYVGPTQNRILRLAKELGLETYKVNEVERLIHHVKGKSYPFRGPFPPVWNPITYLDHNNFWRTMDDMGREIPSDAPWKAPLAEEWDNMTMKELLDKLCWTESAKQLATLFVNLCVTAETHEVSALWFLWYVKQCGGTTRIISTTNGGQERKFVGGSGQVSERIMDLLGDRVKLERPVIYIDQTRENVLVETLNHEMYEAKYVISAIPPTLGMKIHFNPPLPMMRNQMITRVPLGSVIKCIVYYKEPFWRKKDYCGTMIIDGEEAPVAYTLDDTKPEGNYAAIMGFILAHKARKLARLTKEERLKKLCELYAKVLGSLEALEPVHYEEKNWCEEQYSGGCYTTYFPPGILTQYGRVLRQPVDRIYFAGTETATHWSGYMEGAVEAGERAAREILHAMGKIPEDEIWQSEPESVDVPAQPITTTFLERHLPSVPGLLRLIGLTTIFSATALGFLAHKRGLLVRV


Tests used:
MAO B [1] = biological target: T1, MAO B; assay: FAD coupling in intact cells: MAO B enzymatic activity after electroporation of MAO B cDNA with cofactor into Rib^- COS-7 cells ([^14 C] benzylamine substrate); type: cell-based; set-up: Percent of Holo-MAO B Activity: concentration or dose not given beside the values; conditions: for restoration of active MAO B (in words): cofactor added with MAO B cDNA during electroporation; for Enzymatic Activity: cofactor added with MAO B cDNA into Rib^- COS-7 cells, 48 hours, mean ± SE, three experiments; for Percent of Holo-MAO B Activity: relative to holo-MAO B expressed in Rib^+ COS-7 cells, 2880 min
Description: (§1) Wild-type or mutant MAO B cDNAs were transiently transfected into COS-7 cells by electroporation (23) as previously described (18). Briefly, Rib^+ - or Rib^- COS-7 cells were harvested during late log phase growth and resuspended to a concentration of 3.1×10^6 cells/ml in either riboflavin-containing or riboflavin-free medium, respectively. Wild-type or mutant MAO B cDNAs ([…]) were added to 0.8 ml of cell suspension. […] Electroporation was carried out in a Bio-Rad Gene Pulser with a setting of 250 V and 500 μF. Cells were resuspended in 15 ml of riboflavin-containing or riboflavin-free medium and incubated at 37° C. with 5% CO2. Transfected COS-7 cells were harvested at 48 hours and homogenized in a lysis solution containing 20 mM Tris-HCl, 1 mM EDTA, 0.5 mM PMSF, pH 8.0. The homogenate was diluted with an equal volume of the same buffer supplemented with 300 mM NaCl to obtain a 150 mM final NaCl concentration. Triton X-100 (Pierce) was added to the lysate to give a final concentration of 0.25%, and the samples were allowed to stir for 50 min. at 4° C. to extract MAO B from the outer mitochondrial membrane. After Triton extraction, the lysate was centrifuged at 1300×g for 5 min. at 4° C. to remove insoluble cell debris.
MAO B activity was assayed radiometrically by a modification of the method of Wurtman and Axelrod (26) as described previously (18). Briefly, the reaction mixture contained 200 μl of 50 mM sodium phosphate buffer (pH 7.4), 3.6 nmole of 55 mCi/mmol [^14 C] benzylamine hydrochloride (Amersham), 10 nmoles of unlabeled benzylamine and 10 μl of cell lysate. Samples were run in triplicate, and one out of each set was denatured with […] of 6N HCl prior to the addition of substrate to serve as an internal control. All reactions were incubated for 9 minutes at 37° C., and terminated by the addition of 25 μl of 6N HCl. The reaction product was extracted with 500 μl of toluene, and an aliquot (200 μl) of the organic phase from each sample was counted in liquid scintillation fluid (Bio-Safe) in a Beckman LB 3801 scintillation counter.
FMN or riboflavin were also capable of restoring approximately 75% of MAO B holoenzyme activity. However, only 40% of MAO B holoenzyme activity was obtained by the addition of 8α-hydroxyriboflavin.
Various cofactors were added with MAO B cDNA into Rib^- COS7 cells

MAO B [2] = biological target: T1, MAO B; assay: Quantitation of expressed MAO B protein by ELISA in transfected COS-7 cells; type: cell-based; set-up: MAO B Expressed: unit not given here; conditions: cofactor added with MAO B cDNA into Rib^- COS-7 cells; 48 hours; mean ± SE, three experiments
Description: Total protein concentrations of samples containing MAO B holoenzyme, apoenzyme, or variant MAO Bs were determined by a MicroBCA kit (Pierce). All samples were then adjusted to equal protein concentrations and assayed for MAO B protein by ELISA using a modification of the method of Yeomanson and Billett (25) as described previously (18).
MAO B cDNA was expressed sequentially at different time intervals in these cells during this riboflavin depletion process (FIG. 2). Each data point in FIG. 2 represents an individual expression assay. For each assay, a sample of COS-7 cells grown in riboflavin-free medium were transfected with MAO B cDNA via electroporation. Concurrently, Rib^+ COS-7 cells were transfected with MAO B cDNA to serve as a control. Following incubation for 48 hours, the cells were homogenized and assays were performed to determine protein concentration, MAO B concentration by ELISA using polyclonal antibodies, and MAO B activity using [^14 C] benzylamine.
An equal amount of MAO B cDNA (15 μg) was expressed in both types of […]

MAO B [3] = assay: [^14 C] FAD incorporation into wild-type or mutant MAO B in Rib^- COS-7 cells (immunoprecipitation, fluorography); type: binding, human; conditions: about 59 kDa; equal MAO B concentrations
Description: Mutagenesis was carried out by the method of Deng and Nickoloff (22) using a Transformer Site-directed Mutagenesis kit (Clontech). Glu in position 34 was replaced with Asp (E34D), Gln (E34Q), or Ala (E34A), and Val in position 10 was replaced with Ile (V10I) as described by Kwan et al. (18).
as §1
Transfected Rib^+ - or Rib^- COS-7 cells were homogenized, and extracted with 0.25% Triton X-100 for 50 minutes at 4° C. The cell lysates were centrifuged at 1300×g for 5 minutes, and an aliqout of each supernatant was analyzed for MAO B concentration by ELISA. All supernatants were then adjusted to equal MAO B concentration and incubated with polyclonal goat anti-MAO B antibody (10 μg) overnight at 4° C. Protein-G Sepharose beads (Pierce) were added (50 μl) and incubation was continued for 3 hours. The protein-G Sepharose/goat antibody/MAO B immmunocomplex was collected by centrifugation at 10,000×g for 20 seconds and washed 6 times with 150 μl of 20 mM Tris buffer, pH 8.0. The immunocomplex was then dissolved in SDS-PAGE sample buffer and analyzed by Western blot or fluorography.
The immunoprecipitated proteins (obtained as described above) were subjected to electrophoresis in a 10% SDS-polyacrylamide gel and examined by Western blotting as previously described (18). The immunoprecipitated proteins (obtained as described above) were subjected to electrophoresis in a 10% SDS-polyacrylamide gel. The SDS-PAGE gel was fixed by soaking in 7% acetic acid, 10% methanol, 83% H2 O for 1 hour, and then processed for fluorography as described by Bonner and Laskey (27). The dried gel was exposed to Kodak X-OMAT AR film at -80° C. for 2 weeks.
The expressed wild-type and variant MAO Bs were adjusted to equal concentrations using ELISA before immunoprecipitation, and then analyzed by fluorography. The amount of incorporation of [^14 C] […] FAD was incorporated into the enzyme.

Molecule	restoration of active MAO B (in words) (MAO B [1])	Enzymatic Activity (MAO B [1])	Percent of Holo-MAO B Activity (MAO B [1]) [%]	MAO B Expressed (MAO B [2])	MAO B activity relative to that obtained with riboflavin (MAO B [1]; Rib^- COS-7 cells)	Percent of Holo-MAO B Activity (MAO B [1]; listed as 8α-hydroxyriboflavin) [%]	[^14 C] FAD incorporation (band on fluorogram) (MAO B [3])
NC(=O)c1ccc[n+]([C@@H]2O[C@H](COP(=O)(O)OP(=O)(O)OC[C@H]3O[C@@H](n4cnc5c(N)ncnc54)[C@H](O)[C@@H]3O)[C@@H](O)[C@H]2O)c1 [NAD^+]	did not yield active MAO B	0.02 ± 0.00 μmol benzylamine/minute/mg MAO	1.8	1.14 ± 0.06			
Cc1cc2nc3c(=O)[nH]c(=O)nc-3n(C[C@H](O)[C@H](O)[C@H](O)COP(=O)(O)O)c2cc1C [FMN]	equal levels of MAO B activity	0.85 ± 0.03 μmol benzylamine/minute/mg MAO		0.81 ± 0.17			
Cc1cc2nc3c(=O)[nH]c(=O)nc-3n(C[C@H](O)[C@H](O)[C@H](O)CO)c2cc1CO [8α-OH Rib, 8α-hydroxyriboflavin]		0.45 ± 0.01 μmol benzylamine/minute/mg MAO	39.8	0.95 ± 0.08	about one half of that obtained with the addition of riboflavin	40	
Cc1cc2nc3c(=O)[nH]c(=O)nc-3n(C[C@H](O)[C@H](O)[C@H](O)CO)c2cc1C [Riboflavin, riboflavin]	equal levels of MAO B activity	0.86 ± 0.06 μmol benzylamine/minute/mg MAO	76.1	0.90 ± 0.13			
wild-type: wild-type MAO B expressed in Rib^- COS-7 cells (protein, UniProt P27338 2-520, looked up) Amine oxidase …: SNKCDVVVVGGGISGMAAAKLLHDSGLNVVVLEARDRVGGRTYTLRNQKVKYVDLGGSYVGPTQNRILRLAKELGLETYKVNEVERLIHHVKGKSYPFRGPFPPVWNPITYLDHNNFWRTMDDMGREIPSDAPWKAPLAEEWDNMTMKELLDKLCWTESAKQLATLFVNLCVTAETHEVSALWFLWYVKQCGGTTRIISTTNGGQERKFVGGSGQVSERIMDLLGDRVKLERPVIYIDQTRENVLVETLNHEMYEAKYVISAIPPTLGMKIHFNPPLPMMRNQMITRVPLGSVIKCIVYYKEPFWRKKDYCGTMIIDGEEAPVAYTLDDTKPEGNYAAIMGFILAHKARKLARLTKEERLKKLCELYAKVLGSLEALEPVHYEEKNWCEEQYSGGCYTTYFPPGILTQYGRVLRQPVDRIYFAGTETATHWSGYMEGAVEAGERAAREILHAMGKIPEDEIWQSEPESVDVPAQPITTTFLERHLPSVPGLLRLIGLTTIFSATALGFLAHKRGLLVRV							dark band
V10I: control variant, Val in position 10 replaced with Ile (protein, UniProt P27338 2-520, looked up, variant V10I) Amine oxidase …: SNKCDVVVIGGGISGMAAAKLLHDSGLNVVVLEARDRVGGRTYTLRNQKVKYVDLGGSYVGPTQNRILRLAKELGLETYKVNEVERLIHHVKGKSYPFRGPFPPVWNPITYLDHNNFWRTMDDMGREIPSDAPWKAPLAEEWDNMTMKELLDKLCWTESAKQLATLFVNLCVTAETHEVSALWFLWYVKQCGGTTRIISTTNGGQERKFVGGSGQVSERIMDLLGDRVKLERPVIYIDQTRENVLVETLNHEMYEAKYVISAIPPTLGMKIHFNPPLPMMRNQMITRVPLGSVIKCIVYYKEPFWRKKDYCGTMIIDGEEAPVAYTLDDTKPEGNYAAIMGFILAHKARKLARLTKEERLKKLCELYAKVLGSLEALEPVHYEEKNWCEEQYSGGCYTTYFPPGILTQYGRVLRQPVDRIYFAGTETATHWSGYMEGAVEAGERAAREILHAMGKIPEDEIWQSEPESVDVPAQPITTTFLERHLPSVPGLLRLIGLTTIFSATALGFLAHKRGLLVRV							dark band
